Where two headings read alike, the source gives them in different places.
Key:
[1] = system: tomato variety FL47 mature green tomatoes; test: Tomato bioassay (spray application or vacuum infiltration of harvested mature green tomatoes, ripening judged by colour); assay type: in vivo; settings: 5 to 7 days after treatment, FIGS. 2-5
Description: Tomato bioassay: NAE solutions containing 20 ppm or 500 ppm of NAE were used to treat harvested tomatoes as described below. The solutions were prepared by dispersing a solid NAE compound in water through sonication.
Egg LPE was purchased from Avanti Polar Lipids (Alabaster, Ala.). Egg LPE solutions containing 20 ppm or 500 ppm LPE were used as positive controls in the assays described below. The solutions were prepared by dispersing LPE into water through sonication or aggressive agitation.
The tomatoes used in this study were tomato variety FL47 (cultivar), 6×6 mature green tomatoes of good quality MG3–4 ([…]: no apparent external change from green to pink). The tomatoes were purchased from West Coast Tomato (Palmetto, Fla.) and Dimare Tomato (Homestead, Fla.).
The system used for classifying tomato mature stages is as the follows: Green (Stage 1)—“Green” means that the surface of the tomato is completely green in color. The shade of green may vary from light to dark. Breakers (Stage 2)—“Breakers” means there is a definite “break” in color from green, to tannish-yellow, pink or red on not more than 10% of the surface. […] Red (R) (Stage 6)—“Red” means that more than 90% of the surface, in the aggregate, is red.
Locules contain hard, white substance. […] Seeds are forming and are white. […] Seeds are fully formed and are turning from white to beige. MG4-Fruit are softening a little but still completely green on the outside. Inside locular gel is completely formed with hints of pink coloration in the columella tissue. Seeds are dark beige to light brown.
In spray application bioassays, the tomatoes were placed in 100° F. water for 90 seconds, after which the tomatoes were removed from water and placed stem scar up onto a sheet of plastic. An NAE solution or LPE solution was sprayed onto the tomatoes at 30 psi using a flat fan tip situated approximately 8 to 10 inches above the tomatoes. The tomatoes were air dried and placed on a sheet of white paper with stem scar down under consistent environmental conditions. Five to seven days later, the ripening of the tomatoes were determined by visual observation of the color of the tomatoes.
In vacuum infiltration bioassay, each tomato was placed on top of a vacuum bell jar platform with stem scar facing up. 0.5 ml of NAE solution or LPE solution was placed onto stem scar and the glass bell jar lid was lowered onto the jar platform. The vacuum was started and the air escaped from the interior of the tomato causing the NAE solution or the LPE solution on the stem scar to bubble. After a preset time period, the air inlet was opened slowly to release vacuum in the bell jar. […] Five to seven days later, the ripening of the tomatoes were determined by visual observation of the color of the tomatoes.

[2] = system: Raphanus sativus L. cv. Cherry Belle cotyledons; test: Radish cotyledon bioassay (expansion growth and chlorophyll accumulation); assay type: in vivo; settings: for Change in fresh weight: continuous illumination, 25° C., ten cotyledons; for activity at 20 µg/mL: Raphanus sativus, read-out: Change in fresh weight, % of control
Text: Radish cotyledon bioassay: This bioassay using Raphanus sativus L. cv. Cherry Belle cotyledons was developed by Letham, DS (Physiologia Plantarum 25, 391–396, 1971, incorporated by reference in its entirety) to evaluate the efficacy of cytokinin on cell enlargement. Success using this assay is not restricted to radish. […] In addition to their effect on cell division, cytokinin plays a major role in driving cell enlargement. Compounds in this class of phytohormone and with cytokinin activity also help maintain photosynthetic activity and productivity and abolish proteolytic activity. In cotyledon leaf systems, a requirement for cytokinin is critical and removal of the roots (i.e. the presumed source of cytokinin) renders the cotyledon leaves unable to expand. Exposure to cytokinin (0.02–22 μg/ml) results in a dramatic increase in fresh weight of cotyledons within 72 hours. This effect is not observed with either gibberellin or auxin and is usually delayed or inhibited by abscisic acid and the ethylene precursor, 1-aminocyclopropane-1-carboxylic acid (ACC). […] Thus, the mode of action of cytokinin in this system appears to be similar to that of indole-3-acetic acid (IAA) in auxin-induced stem elongation, a process that depends on an increase in the mechanical extensibility of the cell wall. However, cytokinin antagonizes IAA-mediated cell elongation and appears to do so by promoting ethylene production. Furthermore, cytokinin-induced cell expansion is not usually accompanied by proton (H^+) extrusion and no change in plasma membrane ATPase activity is evident.
Seeds of Raphanus sativus L. cv. Cherry-Belle were germinated in darkness at 24° C. for 36 h in Petri dishes containing filter paper wetted with distilled water. The smaller of the two cotyledons was excised, the fresh weight determined, and 10 cotyledons placed adaxial side down on filter paper in Petri dishes containing 10 ml of KPO4 buffer (2 mM, pH 6.0) and the compounds to be tested at 20 mg/l. […] Chlorophyll content was determined after extraction of tissue into 80% ethanol (containing butylated hydroxytoluene (BHT) 10 mg/l) using the equations Chl a=(13.95A663)−(6.88A647) and Chl b=(24.96A652)−(7.32A663) as described by Lichtenthaler, HK, Methods in Enzymology 148: 350–382, 1987, incorporated by reference in its entirety. FIG. 6 illustrates the difference in cotyledon size in response to the cytokinin kinetin.

maize roots = test: Corn root bioassay (ethylene production by maize roots); assay type: in vivo, Zea mays L.; settings: 20 mg/l; for activity at 20 µg/mL: Zea mays, read-out: Ethylene, % of control
Description: Corn root bioassay: It is well established that roots of Zea mays produce ethylene when exposed to a variety of stresses (for review, see Morgan, PW and Drew, MC, Physiologia Plantarum 100: 620–630, 1997). Mechanical impedance and hypoxia both induce ethylene formation and usually as early as 1 hour after exposure. In response to ethylene treatment, maize roots show decreased expansion and elongation, a high incidence of cell death and the formation of aerenchyma tissue—particularly evident when roots are exposed to hypoxic conditions (Drew, MC et al., Trends in Plant Science 5: 123–127, 2000, Morgan and Drew 1997).
Seeds of Zea mays L. were sown in flats of Perlite, covered with a layer of vermiculite, and irrigated daily with water and/or 1/10 Hoagland solution. Seedlings were cultivated under continuous illumination at 22–25° C. and used when 7 d old. Seedlings were removed from the Perlite and washed under running tap water. Seedlings were allowed to acclimate in water and/or 1/10 Hoagland solution for several hours before being transferred to Falcon tubes containing the test compounds (all 20 mg/l) prepared in 1/10 Hoagland solution. […] Roots were then transferred to gas-tight tubes each containing 200 μl of water. The tubes were sealed and incubated at 26° C. for 1–2 h in darkness before gas samples were drawn from the incubation tubes using a 1 ml syringe and assayed by gas chromatography (Romera, FJ et al. (1999) Annals of Botany 83, 51–55).

[3] = Table 3, 48 h incubation, 20 mg/l
[4] = summary statement in the description

CCCCCCCCCC(=O)NCCO [NAE-10:0, N-Decanoyl-2-aminoethanol]
number of ripened tomatoes compared to the control group ([1]; sprayed with 500 ppm): higher number of ripened tomatoes
number of ripened tomatoes compared to the control group ([1]; vacuum infiltrated with 20 ppm): higher number of ripened tomatoes
Chlorophyll a/b ([2]; Experiment 1, 20 mg/l, 72 h): 1.5
Change in fresh weight ([2]; Experiment 1, 20 mg/l, 72 h): 10.34 ± 3.28 mg
Chlorophyll (mg/g FW) a + b ([2]; Experiment 2, 20 mg/l, 48 h): 1.41 mg/g FW
Chlorophyll (μg/cotyledon) a + b ([2]; Experiment 2, 20 mg/l, 48 h): 22.57 μg/cotyledon
Chlorophyll a/b ([2]; Experiment 2, 20 mg/l, 48 h): 1.8
Change in fresh weight ([2]; Experiment 2, 20 mg/l, 48 h): 11.56 ± 2.16 mg
activity at 20 µg/mL ([2]; Experiment 1, 20 mg/l, 72 h): 74%
activity at 20 µg/mL ([2]; Experiment 2, 20 mg/l, 48 h): 143%
chlorophyll content per unit mass (in words) [2, 3]: decreased chlorophyll content per unit mass
chlorophyll per cotyledon (in words) [2, 3]: increased chlorophyll per cotyledon
hormone-like activity with respect to expansion growth (in words) [2, 3]: cytokinin-like activity
cytokinin-like activities (summary of the examples) [2, 4]: cytokinin-like activities
ethylene-like activities (summary of the examples) [2, 4]: ethylene-like activities
activity at 20 µg/mL (maize roots; experiment 1, 72 h): 124%
activity at 20 µg/mL (maize roots; experiment 2, 36 h): 115%
Ethylene (maize roots; experiment 2, 36 h illumination, roots incubated 2 h in darkness at 24° C.): 33.02 ± 9.63 pmol/g FW/h
